US9695155B2, “Herbicidal substituted pyrimidinyloxy benzene compounds” (E. I. DU PONT DE NEMOURS AND COMPANY, priority 2013, dated 2017)

Key:
large (Lg) crabgrass = test: Test E preemergence; format: in vivo, Digitaria sanguinalis; settings: for Crabgrass, Large plant response rating: scale 0 to 100 (0 no effect, 100 complete control); for Plant response rating, Crabgrass, Large: 125 g ai/ha, scale 0 to 100, 0 no effect, 100 complete control
Outline: (§1)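 Compound in a non-phytotoxic solvent mixture with surfactant was applied preemergence to seeds in silt loam soil, or postemergence to plants 2 to 18 cm tall grown in peat-based potting medium. Plants were kept in a greenhouse for 14 to 21 days, then rated visually against untreated controls on a 0 (no effect) to 100 (complete control) scale.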

velvetleaf = test: Test E preemergence; format: in vivo, Abutilon theophrasti; settings: for Velvetleaf plant response rating: scale 0 to 100 (0 no effect, 100 complete control); for Plant response rating, Velvetleaf: 125 g ai/ha, scale 0 to 100, 0 no effect, 100 complete control
Outline: as §1

nightshade = test: Test E preemergence; format: in vivo, Solanum ptycanthum; settings: for Nightshade plant response rating: scale 0 to 100 (0 no effect, 100 complete control); for Plant response rating, Nightshade: 125 g ai/ha, scale 0 to 100, 0 no effect, 100 complete control
Outline: as §1

kochia = test: Test A preemergence; format: in vivo, Kochia scoparia; settings: for Plant response rating, Kochia: 0 to 100 scale where 0 is no effect and 100 is complete control
Outline: (§2)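 Pre- and postemergence greenhouse screen. Soil: loam + sand. Spray carrier: solvent mixture, non-phytotoxic, with surfactant. Post timing at 1–2 leaves, height 2–10 cm. Readout: visual injury on a 0–100 scale roughly 10 days after application, untreated plants as reference.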

dayflower = test: Test E preemergence; format: in vivo, Commelina virginica; settings: for Dayflower, VA plant response rating: scale 0 to 100 (0 no effect, 100 complete control); for Plant response rating, Dayflower, VA: 125 g ai/ha, scale 0 to 100, 0 no effect, 100 complete control
Outline: as §1

morningglory = test: Test E preemergence; format: in vivo, Ipomoea coccinea; settings: for Morningglory plant response rating: scale 0 to 100 (0 no effect, 100 complete control); for Plant response rating, Morningglory: 125 g ai/ha, scale 0 to 100, 0 no effect, 100 complete control
Outline: as §1

blackgrass = test: Test A postemergence; format: in vivo, Alopecurus myosuroides
Outline: as §2

barnyardgrass = test: Test E preemergence; format: in vivo, Echinochloa crus-galli; settings: for Barnyardgrass plant response rating: scale 0 to 100 (0 no effect, 100 complete control); for Plant response rating, Barnyardgrass: scale 0 to 100, 0 no effect, 100 complete control
Outline: as §1

fall panicum = test: Test E preemergence; format: in vivo, Panicum dichotomiflorum; settings: for Panicum, Fall plant response rating: scale 0 to 100 (0 no effect, 100 complete control); for Plant response rating, Panicum, Fall: 125 g ai/ha, scale 0 to 100, 0 no effect, 100 complete control
Outline: as §1

ragweed = test: Test E preemergence; format: in vivo, Ambrosia elatior; settings: for Ragweed plant response rating: scale 0 to 100 (0 no effect, 100 complete control); for Plant response rating, Ragweed: 125 g ai/ha, scale 0 to 100, 0 no effect, 100 complete control
Outline: as §1

galium = test: Test A postemergence; format: in vivo, Galium aparine
Outline: as §2

palmer pigweed = test: Test E preemergence; format: in vivo, Amaranthus palmeri; settings: for Pigweed, Palmer plant response rating: scale 0 to 100 (0 no effect, 100 complete control); for Plant response rating, Pigweed, Palmer: 125 g ai/ha, scale 0 to 100, 0 no effect, 100 complete control
Outline: as §1

corn = test: Test E preemergence; format: in vivo, Zea mays; settings: for Corn plant response rating: scale 0 to 100 (0 no effect, 100 complete control); for Plant response rating, Corn: 125 g ai/ha, scale 0 to 100, 0 no effect, 100 complete control
Outline: as §1

soybean = test: Test E preemergence; format: in vivo, Glycine max; settings: for Soybean plant response rating: scale 0 to 100 (0 no effect, 100 complete control); for Plant response rating, Soybean: 125 g ai/ha, scale 0 to 100, 0 no effect, 100 complete control
Outline: as §1

[1] = 31 g ai/ha, 0 to 100 scale, 0 no effect, 100 complete control
[2] = 125 g ai/ha, 0 to 100 scale, 0 no effect, 100 complete control
[3] = 125 g ai/ha, 0 to 100 scale where 0 is no effect and 100 is complete control
[4] = 500 g ai/ha, 0 to 100 scale where 0 is no effect and 100 is complete control

In the case of `FCc1cccc(Oc2ncc(Cl)cn2)c1-n1cc(Cl)cn1` [Compound 250], the “Crabgrass, Large plant response rating” value (large (Lg) crabgrass; 16 g ai/ha) is reported as 0, the “Crabgrass, Large plant response rating” value (large (Lg) crabgrass; 31 g ai/ha) is reported as 0 and the “Crabgrass, Large plant response rating” value (large (Lg) crabgrass; 62 g ai/ha) is reported as 0. The “Plant response rating, Crabgrass, Large” value (large (Lg) crabgrass) was 100, the “Velvetleaf plant response rating” value (velvetleaf; 31 g ai/ha) was 75 and the “Velvetleaf plant response rating” value (velvetleaf; 62 g ai/ha) was 75. The “Plant response rating, Velvetleaf” value (velvetleaf) was 100, the “Nightshade plant response rating” value (nightshade; 31 g ai/ha) was 0 and the “Nightshade plant response rating” value (nightshade; 62 g ai/ha) was 35. The “Plant response rating, Nightshade” value (nightshade) was 98, the “Plant response rating, Kochia” value (kochia; 31 g ai/ha, visual, approximately 10 days) was 90 and the “Kochia plant response rating (0 to 100 scale)” value (kochia; 125 g ai/ha) was 0. For the same compound, the “Dayflower, VA plant response rating” value (dayflower; 16 g ai/ha) was 0, the “Dayflower, VA plant response rating” value (dayflower; 31 g ai/ha) was 0 and the “Dayflower, VA plant response rating” value (dayflower; 62 g ai/ha) was 50. The “Plant response rating, Dayflower, VA” value (dayflower) was 70, the “Morningglory plant response rating” value (morningglory; 31 g ai/ha) was 0 and the “Morningglory plant response rating” value (morningglory; 62 g ai/ha) was 0. For the same compound, the “Plant response rating, Morningglory” value (morningglory) was 20, the “Plant response rating, Blackgrass” value (blackgrass; [1]) was 70 and the “Plant response rating, Blackgrass” value (blackgrass; [2]) was 100. For the same compound, the “Barnyardgrass plant response rating” value (barnyardgrass; 16 g ai/ha, preemergence) was 0, the “Barnyardgrass plant response rating” value (barnyardgrass; 31 g ai/ha, preemergence) was 0 and the “Barnyardgrass plant response rating” value (barnyardgrass; 62 g ai/ha, preemergence) was 0. For the same compound, the “Plant response rating, Barnyardgrass” value (barnyardgrass; preemergence, 125 g ai/ha) was 25, the “Panicum, Fall plant response rating” value (fall panicum; 31 g ai/ha) was 0 and the “Panicum, Fall plant response rating” value (fall panicum; 62 g ai/ha) was 0. The “Plant response rating, Panicum, Fall” value (fall panicum) was 100, the “Ragweed plant response rating” value (ragweed; 31 g ai/ha) was 0 and the “Ragweed plant response rating” value (ragweed; 62 g ai/ha) was 0. The “Plant response rating, Ragweed” value (ragweed) was 0, the “Plant response rating, Galium” value (galium; [1]) was 10 and the “Plant response rating, Galium” value (galium; [2]) was 60. The “Pigweed, Palmer plant response rating” value (palmer pigweed; 31 g ai/ha) was 0, the “Pigweed, Palmer plant response rating” value (palmer pigweed; 62 g ai/ha) was 0 and the “Plant response rating, Pigweed, Palmer” value (palmer pigweed) was 100. The “Corn plant response rating” value (corn; 16 g ai/ha) was 0, the “Corn plant response rating” value (corn; 31 g ai/ha) was 0 and the “Corn plant response rating” value (corn; 62 g ai/ha) was 0. The “Plant response rating, Corn” value (corn) was 20, the “Soybean plant response rating” value (soybean; 31 g ai/ha) was 0 and the “Soybean plant response rating” value (soybean; 62 g ai/ha) was 15. For the same compound, the “Plant response rating, Soybean” value (soybean) was 65.
With `N#Cc1cccc(Oc2ncc(F)cn2)c1-n1cc(I)cn1` [Compound 86] the “Crabgrass, Large plant response rating” value (large (Lg) crabgrass; 16 g ai/ha) was 0, the “Crabgrass, Large plant response rating” value (large (Lg) crabgrass; 31 g ai/ha) was 0 and the “Crabgrass, Large plant response rating” value (large (Lg) crabgrass; 62 g ai/ha) was 95. The “Plant response rating, Crabgrass, Large” value (large (Lg) crabgrass) was 98, the “Velvetleaf plant response rating” value (velvetleaf; 16 g ai/ha) was 0 and the “Velvetleaf plant response rating” value (velvetleaf; 31 g ai/ha) was 0. The “Velvetleaf plant response rating” value (velvetleaf; 62 g ai/ha) was 50, the “Plant response rating, Velvetleaf” value (velvetleaf) was 80 and the “Nightshade plant response rating” value (nightshade; 16 g ai/ha) was 0. For the same compound, the “Nightshade plant response rating” value (nightshade; 31 g ai/ha) was 0, the “Nightshade plant response rating” value (nightshade; 62 g ai/ha) was 0 and the “Plant response rating, Nightshade” value (nightshade) was 98. The “Plant response rating, Kochia” value (kochia; 125 g ai/ha) was 100, the “Kochia plant response rating” value (kochia; 500 g ai/ha, 0 to 100 scale, 0 no effect, 100 complete control, approx. 10 days) was 100 and the “Dayflower, VA plant response rating” value (dayflower; 16 g ai/ha) was 0. For the same compound, the “Dayflower, VA plant response rating” value (dayflower; 31 g ai/ha) was 0, the “Dayflower, VA plant response rating” value (dayflower; 62 g ai/ha) was 30 and the “Plant response rating, Dayflower, VA” value (dayflower) was 65. For the same compound, the “Morningglory plant response rating” value (morningglory; 16 g ai/ha) was 0, the “Morningglory plant response rating” value (morningglory; 31 g ai/ha) was 10 and the “Morningglory plant response rating” value (morningglory; 62 g ai/ha) was 30. For the same compound, the “Plant response rating, Morningglory” value (morningglory) was 75, the “Plant response rating, Blackgrass” value (blackgrass; [3]) was 90 and the “Plant response rating, Blackgrass” value (blackgrass; [4]) was 100. For the same compound, the “Barnyardgrass plant response rating” value (barnyardgrass; 16 g ai/ha, preemergence) was 0, the “Barnyardgrass plant response rating” value (barnyardgrass; 31 g ai/ha, preemergence) was 0 and the “Plant response rating, Barnyardgrass” value (barnyardgrass; Preemergence, 62 g ai/ha) was 0. For the same compound, the “Plant response rating, Barnyardgrass” value (barnyardgrass; preemergence, 125 g ai/ha) was 30, the “Panicum, Fall plant response rating” value (fall panicum; 16 g ai/ha) was 0 and the “Panicum, Fall plant response rating” value (fall panicum; 31 g ai/ha) was 35. For the same compound, the “Panicum, Fall plant response rating” value (fall panicum; 62 g ai/ha) was 90, the “Plant response rating, Panicum, Fall” value (fall panicum) was 100 and the “Ragweed plant response rating” value (ragweed; 16 g ai/ha) was 0. The “Ragweed plant response rating” value (ragweed; 31 g ai/ha) was 0, the “Ragweed plant response rating” value (ragweed; 62 g ai/ha) was 5 and the “Plant response rating, Ragweed” value (ragweed) was 20. The “Plant response rating, Galium” value (galium; [3]) was 100, the “Plant response rating, Galium” value (galium; [4]) was 100 and the “Pigweed, Palmer plant response rating” value (palmer pigweed; 31 g ai/ha) was 0. For the same compound, the “Pigweed, Palmer plant response rating” value (palmer pigweed; 62 g ai/ha) was 100, the “Plant response rating, Pigweed, Palmer” value (palmer pigweed) was 100 and the “Corn plant response rating” value (corn; 16 g ai/ha) was 0. The “Corn plant response rating” value (corn; 31 g ai/ha) was 0, the “Corn plant response rating” value (corn; 62 g ai/ha) was 0 and the “Plant response rating, Corn” value (corn) was 5. The “Soybean plant response rating” value (soybean; 16 g ai/ha) was 0, the “Soybean plant response rating” value (soybean; 31 g ai/ha) was 0 and the “Soybean plant response rating” value (soybean; 62 g ai/ha) was 35. The “Plant response rating, Soybean” value (soybean) was 60.
